Experimental data published in ChEMBL document CHEMBL5465560, “Selectivity Literature for EUbOPEN Chemogenomic Library” (2024).
Each block holds one compound with its values, some of them ahead of it.

Experiments:
[1] = target: T1, Protein arginine N-methyltransferase 7 (Homo sapiens) (UniProt Q9NVM4); experiment: Selectivity interaction (Methyltransferase screen (radiometric assays, panel of 8 PRMTs, 21 protein lysine methyltransferases, 3 DNA methyltransferases, and one RNA methyltransferase)) EUB0000272b PRMT7
T1 sequence (whole entry): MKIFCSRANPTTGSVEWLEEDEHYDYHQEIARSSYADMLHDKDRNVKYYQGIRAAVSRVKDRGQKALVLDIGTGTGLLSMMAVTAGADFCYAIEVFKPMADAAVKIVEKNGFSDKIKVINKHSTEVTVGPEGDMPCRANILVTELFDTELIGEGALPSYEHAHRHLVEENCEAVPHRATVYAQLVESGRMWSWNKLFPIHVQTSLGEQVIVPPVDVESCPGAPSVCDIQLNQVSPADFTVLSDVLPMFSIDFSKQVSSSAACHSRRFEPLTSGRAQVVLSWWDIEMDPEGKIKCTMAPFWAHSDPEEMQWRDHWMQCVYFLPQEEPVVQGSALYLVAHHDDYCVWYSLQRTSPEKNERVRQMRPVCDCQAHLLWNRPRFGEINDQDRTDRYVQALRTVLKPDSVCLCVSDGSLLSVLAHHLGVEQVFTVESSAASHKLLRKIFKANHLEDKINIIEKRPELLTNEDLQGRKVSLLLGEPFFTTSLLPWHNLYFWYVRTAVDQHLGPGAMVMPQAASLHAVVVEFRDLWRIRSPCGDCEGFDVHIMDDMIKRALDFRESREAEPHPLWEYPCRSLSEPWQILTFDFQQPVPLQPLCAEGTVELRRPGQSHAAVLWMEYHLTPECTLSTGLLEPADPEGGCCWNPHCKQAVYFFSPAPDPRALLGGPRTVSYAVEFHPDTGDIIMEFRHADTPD

[2] = target: MAP kinase-interacting serine/threonine-protein kinase 2 (Homo sapiens, UniProt Q9HBH9); settings: at 10 µM
Sequence of MAP kinase-interacting serine/threonine-protein kinase 2 (Q9HBH9 whole entry, looked up): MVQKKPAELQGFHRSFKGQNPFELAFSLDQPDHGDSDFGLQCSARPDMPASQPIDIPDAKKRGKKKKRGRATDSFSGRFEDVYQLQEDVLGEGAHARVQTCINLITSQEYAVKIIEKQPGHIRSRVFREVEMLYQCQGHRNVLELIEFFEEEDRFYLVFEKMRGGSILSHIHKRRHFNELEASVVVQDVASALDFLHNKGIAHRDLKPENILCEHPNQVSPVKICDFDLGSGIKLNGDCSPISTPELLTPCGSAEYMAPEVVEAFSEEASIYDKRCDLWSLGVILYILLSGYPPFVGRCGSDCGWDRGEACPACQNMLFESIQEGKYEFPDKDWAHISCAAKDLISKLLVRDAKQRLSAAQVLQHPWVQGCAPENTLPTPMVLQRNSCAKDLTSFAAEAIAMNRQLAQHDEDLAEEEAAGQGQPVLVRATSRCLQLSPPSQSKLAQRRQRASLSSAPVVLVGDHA

[3] = target: Dual specificity protein kinase CLK2 (Homo sapiens, UniProt P49760); experiment: Selectivity interaction (ActivX KiNativ screen (kinase selectivity in THP-1 cell lysates)) EUB0000639a CLK2; type: subcellular; settings: lysate
Sequence of Dual specificity protein kinase CLK2 (P49760 whole entry, looked up): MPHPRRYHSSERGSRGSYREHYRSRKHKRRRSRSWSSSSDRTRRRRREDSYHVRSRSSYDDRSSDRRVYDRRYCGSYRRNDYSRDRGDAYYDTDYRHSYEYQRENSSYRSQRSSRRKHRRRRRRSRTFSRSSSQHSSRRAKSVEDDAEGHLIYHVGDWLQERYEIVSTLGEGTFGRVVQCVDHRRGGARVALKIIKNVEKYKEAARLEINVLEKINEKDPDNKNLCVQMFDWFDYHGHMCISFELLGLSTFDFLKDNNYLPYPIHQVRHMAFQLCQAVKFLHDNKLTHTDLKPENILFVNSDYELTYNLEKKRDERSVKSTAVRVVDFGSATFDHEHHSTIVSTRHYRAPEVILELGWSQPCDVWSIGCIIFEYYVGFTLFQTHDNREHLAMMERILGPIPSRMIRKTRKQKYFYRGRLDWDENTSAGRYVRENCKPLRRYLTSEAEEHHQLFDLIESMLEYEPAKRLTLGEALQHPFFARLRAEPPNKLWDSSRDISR

[4] = target: T2, Serine/threonine-protein kinase ULK1 (Homo sapiens) (UniProt O75385); experiment: Selectivity interaction (ActivX KiNativ screen (kinase selectivity in THP-1 cell lysates)) EUB0000639a ULK1; type: subcellular; settings: lysate
T2 sequence (whole entry): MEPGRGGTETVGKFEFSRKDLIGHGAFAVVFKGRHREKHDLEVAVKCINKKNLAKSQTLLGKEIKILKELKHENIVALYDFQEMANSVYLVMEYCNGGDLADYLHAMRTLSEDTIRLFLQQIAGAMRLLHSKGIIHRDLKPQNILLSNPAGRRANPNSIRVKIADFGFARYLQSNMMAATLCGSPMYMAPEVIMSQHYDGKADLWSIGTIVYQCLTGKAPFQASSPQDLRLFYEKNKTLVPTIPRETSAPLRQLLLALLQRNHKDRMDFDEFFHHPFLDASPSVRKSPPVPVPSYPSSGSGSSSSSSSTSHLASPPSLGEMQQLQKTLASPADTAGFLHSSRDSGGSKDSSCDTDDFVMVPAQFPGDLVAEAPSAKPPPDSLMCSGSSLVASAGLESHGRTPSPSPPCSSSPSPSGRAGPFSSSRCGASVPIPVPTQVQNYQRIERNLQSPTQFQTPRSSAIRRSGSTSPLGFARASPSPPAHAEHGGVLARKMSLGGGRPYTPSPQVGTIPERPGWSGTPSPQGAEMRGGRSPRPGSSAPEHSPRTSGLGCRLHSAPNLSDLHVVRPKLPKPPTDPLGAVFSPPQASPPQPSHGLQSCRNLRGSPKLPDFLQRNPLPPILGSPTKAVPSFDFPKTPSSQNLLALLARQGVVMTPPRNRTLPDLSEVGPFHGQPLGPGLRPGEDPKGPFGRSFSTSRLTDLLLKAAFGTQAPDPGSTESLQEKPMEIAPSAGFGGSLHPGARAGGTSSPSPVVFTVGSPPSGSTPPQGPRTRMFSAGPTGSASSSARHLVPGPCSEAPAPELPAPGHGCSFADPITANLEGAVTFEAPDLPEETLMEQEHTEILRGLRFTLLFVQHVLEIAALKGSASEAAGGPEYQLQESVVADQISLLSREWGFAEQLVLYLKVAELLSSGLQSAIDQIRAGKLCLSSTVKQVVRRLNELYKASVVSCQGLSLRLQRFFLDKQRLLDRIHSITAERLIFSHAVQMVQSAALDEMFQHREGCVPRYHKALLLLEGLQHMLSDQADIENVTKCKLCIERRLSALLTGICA

[5] = target: 5-hydroxytryptamine receptor 2A (Homo sapiens, UniProt P28223); experiment: Selectivity interaction (Panel of kinases, GPCRs, ion channels and transporters (enzymatic assay)) EUB0000223bCl HTR2A
Sequence of 5-hydroxytryptamine receptor 2A (P28223 whole entry, the tested form may be a part): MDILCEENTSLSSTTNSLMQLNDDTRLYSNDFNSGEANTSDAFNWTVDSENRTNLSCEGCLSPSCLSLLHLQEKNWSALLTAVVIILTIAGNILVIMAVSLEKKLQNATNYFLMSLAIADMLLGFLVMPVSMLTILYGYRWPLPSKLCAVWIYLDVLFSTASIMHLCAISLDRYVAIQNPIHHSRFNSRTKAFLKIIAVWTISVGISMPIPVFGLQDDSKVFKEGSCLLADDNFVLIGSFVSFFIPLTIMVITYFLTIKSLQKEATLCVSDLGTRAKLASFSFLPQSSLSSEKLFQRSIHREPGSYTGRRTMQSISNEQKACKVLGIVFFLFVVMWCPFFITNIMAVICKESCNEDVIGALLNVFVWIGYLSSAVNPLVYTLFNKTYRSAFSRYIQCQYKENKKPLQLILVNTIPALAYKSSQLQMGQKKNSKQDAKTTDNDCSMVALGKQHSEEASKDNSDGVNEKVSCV

[6] = target: WD repeat-containing protein 48 (Homo sapiens) (UniProt Q8TAF3); experiment: Selectivity interaction (PWWP, WD40, and Tudor domain panel (DSLS measurements, literature)) EUB0000270b WDR48
Sequence of WD repeat-containing protein 48 (Homo sapiens) (Q8TAF3 whole entry, the tested form may be a part): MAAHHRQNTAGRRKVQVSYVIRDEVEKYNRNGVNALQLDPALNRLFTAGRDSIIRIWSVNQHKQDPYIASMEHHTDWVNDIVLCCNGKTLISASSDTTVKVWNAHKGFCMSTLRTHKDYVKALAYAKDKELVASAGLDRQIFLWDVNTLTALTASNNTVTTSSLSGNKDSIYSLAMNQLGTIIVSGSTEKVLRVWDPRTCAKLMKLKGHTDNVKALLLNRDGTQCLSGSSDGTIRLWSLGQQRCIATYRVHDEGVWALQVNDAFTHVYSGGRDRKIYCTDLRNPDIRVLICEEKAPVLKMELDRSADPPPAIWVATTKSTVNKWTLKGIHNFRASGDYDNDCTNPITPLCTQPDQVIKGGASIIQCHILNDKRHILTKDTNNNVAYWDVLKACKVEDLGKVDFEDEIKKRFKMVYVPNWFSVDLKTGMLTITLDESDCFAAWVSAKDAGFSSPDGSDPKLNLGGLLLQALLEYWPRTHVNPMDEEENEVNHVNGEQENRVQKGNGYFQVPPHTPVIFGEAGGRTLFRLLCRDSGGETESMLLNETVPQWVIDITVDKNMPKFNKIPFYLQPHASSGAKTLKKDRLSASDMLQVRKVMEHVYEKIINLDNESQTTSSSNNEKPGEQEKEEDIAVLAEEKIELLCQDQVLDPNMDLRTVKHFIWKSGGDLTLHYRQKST

[7] = target: Dual specificity protein kinase CLK3 (Homo sapiens, UniProt P49761); settings: at 10 µM
Sequence of Dual specificity protein kinase CLK3 (P49761 whole entry, looked up): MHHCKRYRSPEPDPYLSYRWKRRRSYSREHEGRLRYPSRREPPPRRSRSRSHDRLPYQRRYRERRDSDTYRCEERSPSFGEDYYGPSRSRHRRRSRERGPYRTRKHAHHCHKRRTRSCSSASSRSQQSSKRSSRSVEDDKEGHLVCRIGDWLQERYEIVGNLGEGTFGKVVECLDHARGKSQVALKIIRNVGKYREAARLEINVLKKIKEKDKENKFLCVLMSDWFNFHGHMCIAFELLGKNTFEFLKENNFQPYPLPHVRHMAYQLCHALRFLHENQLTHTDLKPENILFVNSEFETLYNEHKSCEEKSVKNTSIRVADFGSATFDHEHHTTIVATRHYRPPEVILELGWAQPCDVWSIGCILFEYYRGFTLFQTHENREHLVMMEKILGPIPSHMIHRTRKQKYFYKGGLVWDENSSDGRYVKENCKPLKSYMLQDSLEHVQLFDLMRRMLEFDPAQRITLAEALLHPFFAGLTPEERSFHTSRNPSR

[8] = target: T3, Dual specificity mitogen-activated protein kinase kinase 5 (Homo sapiens) (UniProt Q13163); experiment: Selectivity interaction (KinomeScan (DiscoverX)) EUB0001619a MAP2K5; settings: at 1 µM
T3 sequence (whole entry): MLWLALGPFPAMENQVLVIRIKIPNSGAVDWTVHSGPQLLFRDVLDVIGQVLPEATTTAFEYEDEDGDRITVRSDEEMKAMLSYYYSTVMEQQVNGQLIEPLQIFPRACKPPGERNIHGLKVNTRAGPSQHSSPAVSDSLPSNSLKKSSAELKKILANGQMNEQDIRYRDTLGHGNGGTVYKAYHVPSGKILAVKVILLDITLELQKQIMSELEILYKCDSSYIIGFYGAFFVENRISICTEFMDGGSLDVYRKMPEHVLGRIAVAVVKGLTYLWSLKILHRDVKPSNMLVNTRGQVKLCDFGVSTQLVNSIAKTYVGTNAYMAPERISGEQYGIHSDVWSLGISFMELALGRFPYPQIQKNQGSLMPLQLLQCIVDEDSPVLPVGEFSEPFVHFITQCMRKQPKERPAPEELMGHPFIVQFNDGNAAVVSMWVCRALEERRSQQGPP

SMILES: CCN(CC)CCCCNc1ncc2cc(-c3cc(OC)cc(OC)c3)c(NC(=O)NC(C)(C)C)nc2n1
% of control [2]: 100%

SMILES: COc1cc(C(=O)N2CC[C@@H](O)[C@@H](N)C2)cc2nc(-c3cc4ccccc4n3CC3CC3)n(C)c12
pXC50 [5]: < 4.4 M

SMILES: Cc1cc(CN)cc(C)c1-c1ncn(C)c1-c1cncn1C
dTagg [6]: 0.1 K

SMILES: Cc1cc([C@@H](C)Nc2ccccc2C(=O)O)c2nc(N3CCOCC3)cc(=O)n2c1 [AZD-6482]
% of control [7]: 100%

SMILES: N#Cc1cccc(-c2c[nH]c3ncnc(N4CCOCC4)c23)c1
% of control [8]: 14%

Further lines, results first:

% of activity ([1]; at 1 µM): 97.7%
% of activity ([1]; at 10 µM): 100%
SMILES: Cc1cc(C)cc([C@H]2c3cc(C)ccc3NC(=O)CN2C(=O)c2ccc(Br)s2)c1

% of inhibition ([3]; at 0.01 µM): 26.8%
% of inhibition ([3]; at 0.04 µM): 32.4%
% of inhibition ([3]; at 0.2 µM): 38.8%
% of inhibition ([3]; at 1 µM): 14.3%
% of inhibition ([3]; at 5 µM): 19.9%
% of inhibition ([4]; at 0.01 µM): 4.8%
% of inhibition ([4]; at 0.04 µM): 4.1%
% of inhibition ([4]; at 0.2 µM): 6.2%
% of inhibition ([4]; at 1 µM): -18.5%
% of inhibition ([4]; at 5 µM): 8%
SMILES: CC[C@@H]1[C@H](F)C(=O)N[C@@H]1COc1nccc2cc(C(N)=O)c(OC)cc12 [ZIMLOVISERTIB]
